In US20130317056A1, “NEURONAL NICOTINIC AGONISTS AND METHODS OF CORRELATING COMT SNPS” (ABBVIE INC., priority 2012, published 2013):

Experiments:
[1] = test system: clinically stable subjects with schizophrenia; assay: MATRICS Consensus Cognitive Battery (MCCB), Phase 2a Clinical Study A, ITT; format: in vivo, human; conditions: 25 mg QD, Change to Week 12
Text: A Phase 2a proof-of-concept (POC) study in clinically stable subjects with schizophrenia who were clinically stable and received stable doses of atypical antipsychotic therapy. The study was a Phase 2, multi-center, randomized, double-blind, placebo-controlled, parallel group study designed to evaluate the safety and efficacy of doses of (4s)-4-(5-phenyl-1,3,4-thiadiazol-2-yloxy)-1-azatricyclo[3.3.1.1^3,7]decane (Compound A) in clinically stable male and female subjects (ages 20 to 55, inclusive) with a Diagnostic and Statistical Manual of Mental Disorders—Fourth Edition, Text Revision (DSM-IV-TR) diagnosis of schizophrenia. […] The criteria for clinical stability was determined by a combination of retrospective data (over the 4 months prior to the start of Screening, which will be supported by clinical records, patient, identified responsible contact person, and physician interviews), and prospective data assessed during the Prospective Stabilization Period of 28 to 42 days duration. […]
The primary endpoint was the MCCB composite score, and the primary endpoint analysis was the change on the MCCB composite score from baseline to endpoint versus placebo. Other secondary measures included the MCCB domains, the NSA-16, the CANTAB cognition battery (measured at different time points from the MCCB), and the UPSA-2. […]

[2] = test system: subjects with schizophrenia who were not current smokers; assay: MCCB composite score in non-smokers by COMT SNP, Clinical Study A; format: in vivo, human; conditions: for MCCB composite score, change score: subjects who were not current smokers; for MCCB Change from Baseline to Final Mean(SD) / MCCB Between-group Difference (Pooled SD) / MCCB Effect Size (Raw mean): non-smokers; for treatment effect on MCCB: nonsmokers
Protocol: Analysis of the data by cigarette smoking status (current smoker or current nonsmoker) indicated a significant […] interaction (p=0.015).
A blood sample for genotyping was collected from each subject who consented. Genomic DNA was isolated from whole blood using the FlexiGene DNA AGF3000 kit (Qiagen, Valencia, Calif.), on an AutogenFlex 3000 (AutoGen, Holliston, Mass.). Genotypes were determined using the Pyrosequencing detection method (USA—Qiagen, Inc., Valencia, Calif.). Individuals performing the genotyping were blinded to clinical trial data. The significance of the minor allele against the major allele is shown in column marked “Treatment genotype p-value” (Tables 6 and 7).
A similar dose-response trend was observed across the four COMT SNPs in the population of nonsmokers as well (data not shown).

[3] = RS4633 C/C (major allele), 25 mg vs placebo
[4] = RS4633 T/T or C/T (minor allele), 10 mg vs placebo
[5] = RS4633 T/T or C/T (minor allele), 25 mg vs placebo
[6] = RS4680 A/A or G/A (minor allele), 10 mg vs placebo
[7] = RS4680 A/A or G/A (minor allele), 25 mg vs placebo
[8] = RS4680 G/G (major allele), 25 mg vs placebo
[9] = RS4818 C/C (major allele), 25 mg vs placebo
[10] = RS4818 G/C or G/G (minor allele), 10 mg vs placebo
[11] = RS4818 G/C or G/G (minor allele), 25 mg vs placebo
[12] = RS6269 A/A (major allele), 25 mg vs placebo
[13] = RS6269 G/G or A/G (minor allele), 10 mg vs placebo
[14] = RS6269 G/G or A/G (minor allele), 25 mg vs placebo

c1ccc(-c2nnc(O[C@@H]3C4CC5C[C@H]3C[N@](C5)C4)s2)cc1 [Compound A, (4s)-4-(5-phenyl-1,3,4-thiadiazol-2-yloxy)-1-azatricyclo[3.3.1.1^3,7]decane]
MCCB Verbal Learning, Observed Mean (SD) change from baseline [1]: 2.24 (8.03) T-score | MCCB composite score, change score ([2]; 10 mg, p=0.021): +2.1 | MCCB composite score, change score ([2]; 25 mg, p=0.001): +4.5 | MCCB Change from Baseline to Final Mean(SD) ([2]; RS4633 C/C (major allele), 25 mg): 7.4(6.1) | MCCB Between-group Difference (Pooled SD) [2, 3]: 8.4(5.1) | MCCB Effect Size (Raw mean) [2, 3]: 1.65 | MCCB Change from Baseline to Final Mean(SD) ([2]; RS4633 T/T or C/T (minor allele), 10 mg): 2.4(7.3) | MCCB Between-group Difference (Pooled SD) [2, 4]: 2.7(6.1) | MCCB Effect Size (Raw mean) [2, 4]: 0.44 | MCCB Change from Baseline to Final Mean(SD) ([2]; RS4633 T/T or C/T (minor allele), 25 mg): 2.4(5.4) | MCCB Between-group Difference (Pooled SD) [2, 5]: 2.7(4.9) | MCCB Effect Size (Raw mean) [2, 5]: 0.55 | MCCB Change from Baseline to Final Mean(SD) ([2]; RS4680 A/A or G/A (minor allele), 10 mg): 2.2(7.5) | MCCB Between-group Difference (Pooled SD) [2, 6]: 2.4(6.4) | MCCB Effect Size (Raw mean) [2, 6]: 0.38 | MCCB Change from Baseline to Final Mean(SD) ([2]; RS4680 A/A or G/A (minor allele), 25 mg): 2.4(5.4) | MCCB Between-group Difference (Pooled SD) [2, 7]: 2.6(4.7) | MCCB Effect Size (Raw mean) [2, 7]: 0.55 | MCCB Change from Baseline to Final Mean(SD) ([2]; RS4680 G/G (major allele), 25 mg): 7.4(6.1) | MCCB Between-group Difference (Pooled SD) [2, 8]: 8.4(5.1) | MCCB Effect Size (Raw mean) [2, 8]: 1.65 | MCCB Change from Baseline to Final Mean(SD) ([2]; RS4818 C/C (major allele), 25 mg): 1.3(6.7) | MCCB Between-group Difference (Pooled SD) [2, 9]: 1.8(5.3) | MCCB Effect Size (Raw mean) [2, 9]: 0.34 | MCCB Change from Baseline to Final Mean(SD) ([2]; RS4818 G/C or G/G (minor allele), 10 mg): 1.2(3.8) | MCCB Between-group Difference (Pooled SD) [2, 10]: 1.8(3.9) | MCCB Effect Size (Raw mean) [2, 10]: 0.46 | MCCB Change from Baseline to Final Mean(SD) ([2]; RS4818 G/C or G/G (minor allele), 25 mg): 5.8(5.3) | MCCB Between-group Difference (Pooled SD) [2, 11]: 6.4(4.8) | MCCB Effect Size (Raw mean) [2, 11]: 1.33 | MCCB Change from Baseline to Final Mean(SD) ([2]; RS6269 A/A (major allele), 25 mg): 1.9(6.3) | MCCB Between-group Difference (Pooled SD) [2, 12]: 2.2(4.9) | MCCB Effect Size (Raw mean) [2, 12]: 0.45 | MCCB Change from Baseline to Final Mean(SD) ([2]; RS6269 G/G or A/G (minor allele), 10 mg): 1.0(3.5) | MCCB Between-group Difference (Pooled SD) [2, 13]: 1.9(3.9) | MCCB Effect Size (Raw mean) [2, 13]: 0.49 | MCCB Change from Baseline to Final Mean(SD) ([2]; RS6269 G/G or A/G (minor allele), 25 mg): 5.9(5.6) | MCCB Between-group Difference (Pooled SD) [2, 14]: 6.8(5.2) | MCCB Effect Size (Raw mean) [2, 14]: 1.31 | treatment effect on MCCB ([2]; minor allele of the four COMT SNPs): highly robust | treatment effect on MCCB ([2]; subjects containing the major allele): meaningful effect
